Where a name gives a salt, the structure may show the parent alone.
Columns and labels:
[1] = Enzyme stability in human liver S9 fractions; assay type: in vitro ADME; details: 0.5 mg/mL pooled human liver S9 fractions; 10 μM compound; 37° C.; pH 7.4; read-out: Stability in liver S9 fractions, Clint
Procedure, shortened: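 Compound at 10 μM was incubated at 37 °C with 0.5 mg/mL pooled human liver S9, 2 mM β-NAD and 4 mM MgCl2 in 0.1 M sodium phosphate, pH 7.4, then quenched with acetonitrile and analysed chromatographically. T½ and CLint were derived from the slope of log peak area versus time.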

[2] = Chemical stability in human blood plasma; assay type: in vitro ADME; details: pooled human blood plasma; 10 μm; 4 hours at 37° C.; substance amount remaining
Procedure, shortened: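 Percent of parent remaining was derived by comparing HPLC peak areas at time zero and after 4 h at 37 °C. Test compound was at 10 μM in human plasma pooled from ten donors, and proteins were precipitated with acetonitrile before analysis.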

[3] = molecular target: T1, WT EGFR (Wild-Type EGFR) (Homo sapiens, UniProt P00533); test: Inhibition of WT EGFR kinase activity (ADP-Glo); assay type: biochemical
T1 construct: purchased SignalChem
Procedure, shortened: (§1)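 Luminescent ADP-Glo readout was used for both wild-type and L858R/T790M EGFR, each run 180 minutes at 37° C. Reactions used a solution of 50 μM ATP with 0.5 mg/mL peptide substrate. Four-parameter logistic curves gave IC50.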

[4] = molecular target: T2, DM EGFR (DoubleMutantEGFR, L828R/T790M) (Homo sapiens, UniProt P00533, L858R/T790M); test: Inhibition of DM EGFR kinase activity (ADP-Glo); assay type: biochemical; details: for IC50: inhibition of kinase activity, EGFR DM (L828R/T790M); for SI, IC50(WT)/IC50(DM): selectivity index, kinase EGFR WT vs EGFR DM
T2 construct: purchased SignalChem
Procedure, shortened: as §1

[5] = Permeability through monolayer of Caco-2 cells; assay type: in vitro ADME; details: human, Caco-2 monolayer; for Papp A→B at 2 h, 10 µM: pH 6.5 upper / pH 7.4 lower, 2 h at 37° C.; for efflux ratio at 2 h, 10 µM: Papp B-A/Papp A-B
Excerpt: 2) Assessment of permeability through monolayer of Caco-2 cells.
Assessment of permeability through the monolayer of Caco-2 cells allows to evaluate the ability of the candidate compounds to penetrate through biological membranes by active and passive transport.
Caco-2, the cells of the intestinal epithelium, had been cultured in transwell plate inserts with the filters (with pores of 0.4 μm, BD Falcon with High Density) for 21 days, and then the integrity of the monolayer were estimated with Lucifer Yellow (Sigma-Aldrich, USA) by standard protocol. When setting the A→B transfer (“intestinal lumen”—“blood stream” transfer), solutions of test substances were added in a buffer with pH 6.5 (HBSS, 10 mM HEPES, 15 mM glucose solution) with the concentration of 10 μM into the upper chamber; the lower chamber was filled with a buffer with pH 7.4 (HBSS, 10 mM HEPES, 15 mM Glucose, 1% BSA). When setting B→A transfer (“blood stream”—“intestinal lumen” transfer), the upper chamber was filled with the buffer with pH 6.5, and solutions of the test substances were added in the buffer with pH 7.4 at the concentration of 10 μM in the lower chamber. Propranolol was used as a control substance (as it has high permeability).
After incubating for 2 h at 37° C. under 5% CO2, the amounts of test substances were determined in the upper and lower chambers by HPLC using Agilent1200 chromatograph (Agilent, USA) with preliminary protein precipitation with acetonitrile. We used gradient elution (1 mL/min flow rate). We determined the areas of peaks corresponding to the compounds. On the basis of peak areas in the calibration standards we determined the concentration of compound in the initial solution and in the samples from the wells of the upper and lower chambers. Papp, permeability through the cell layer, was calculated using the following formula:
Papp=(C(t)*V)/(C(0)*t*Area), wherein
The value was calculated with the following formula:
efflux=Papp B-A/Papp A-B, wherein • Papp A-B—the volume of permeability in A→B test; • Papp B-A—he volume of permeability in B→A test.

Row | SMILES | Intrinsic clearance in human liver S9 fractions at 10 µM [1] | Stability in blood plasma, % [2] | IC50 [3] | IC50 [4] | SI, IC50(WT)/IC50(DM) [4] | Papp A→B at 2 h, 10 µM [5] | efflux ratio at 2 h, 10 µM [5]
1 | C=CC(=O)Nc1cc(Nc2cc(C(=O)c3ccc(N4CC(OC)C4)cc3)ccn2)c(OC)cc1N(C)CCN(C)C (racemic) [EGFR_3365_53, N-(2-((2-(dimethylamino)ethyl)(methyl)amino)-4-methoxy-5-((4-(4-(3-methoxyazetidin-1-yl)benzoyl)pyridin-2-yl)amino)phenyl)acrylamide] | 10.1 µL/min/mg | 91.8% | 183 nM | 7.31 nM | 25.06 | – | –
2 | C=CC(=O)Nc1cc(Nc2cc(C(=O)c3ccccc3)ccn2)c(OC)cc1N(C)CCN(C)C [EGFR_3365_3, N-(5-((4-benzoylpyridin-2-yl)amino)-2-((2-(dimethylamino)ethyl)(methyl)amino)-4-methoxyphenyl)acrylamide] | – | 82.1% | 76.6 nM | 14.5 nM | 5.29 | 5.9 ×10⁻⁶ cm/s | 0.8
3 | C=CC(=O)Nc1cc(Nc2cc(C(=O)c3ccc(N(C)C)cc3)ccn2)c(OC)cc1N(C)CCN(C)C.O=C(O)C(F)(F)F [EGFR_3365_4, N-(5-((4-(4-(dimethylamino)benzoyl)pyridin-2-yl)amino)-2-((2-(dimethylamino)ethyl) (methyl)amino)-4-methoxyphenyl)acrylamide 2,2,2-trifluoroacetate] | 0.9 µL/min/mg | – | 230 nM | 21.4 nM | 10.79 | 2.86 ×10⁻⁶ cm/s | 2
4 | C=CC(=O)Nc1cc(Nc2nccc(C(=O)c3ccccc3Br)n2)c(OC)cc1N(C)CCN(C)C [EGFR_3365_12, N-(5-((4-(2-bromobenzoyl)pyrimidin-2-yl)amino)-2-((2-(dimethylamino)ethyl) (methyl)amino)-4-methoxyphenyl)acrylamide] | – | 76.3% | 389 nM | 25.5 nM | 15.25 | 1.94 ×10⁻⁶ cm/s | 0.98
5 | C=CC(=O)Nc1cc(Nc2nccc(C(=O)c3ccc(OCc4ccccc4)cc3)n2)c(OC)cc1N(C)CCN(C)C [EGFR_3365_16, N-(5-((4-(4-(benzyloxy)benzoyl)pyrimidin-2-yl)amino)-2-((2-(dimethylamino)ethyl)(methyl)amino)-4-methoxyphenyl)acrylamide] | 17.9 µL/min/mg | 83.5% | 154 nM | 32.8 nM | 4.70 | – | –
6 | C=CC(=O)Nc1cc(Nc2nccc(C(=O)c3ccc(Oc4ccccc4)cc3)n2)c(OC)cc1N(C)CCN(C)C [EGFR_3365_17, N-(2-((2-(dimethylamino)ethyl)(methyl)amino)-4-methoxy-5-((4-(4-phenoxybenzoyl)pyrimidin-2-yl)amino)phenyl)acrylamide] | 10.9 µL/min/mg | 97.0% | 171 nM | 21.5 nM | 7.95 | – | –
7 | C=CC(=O)Nc1cc(Nc2nccc(C(=O)c3ccc(OC)cc3)n2)c(OC)cc1N(C)CCN(C)C [EGFR_3365_28, N-(2-((2-(dimethylamino)ethyl)(methyl)amino)-4-methoxy-5-((4-(4-methoxybenzoyl)pyrimidin-2-yl)amino)phenyl)acrylamide] | – | 86.2% | 128 nM | 6.27 nM | 20.33 | 3.84 ×10⁻⁶ cm/s | 1.87
8 | C=CC(=O)Nc1cc(Nc2nccc(C(=O)c3ccc(OCC)cc3)n2)c(OC)cc1N(C)CCN(C)C [EGFR_3365_29, N-(2-((2-(dimethylamino)ethyl)(methyl)amino)-5-((4-(4-ethoxybenzoyl)pyrimidin-2-yl)amino)-4-methoxyphenyl) acrylamide] | – | 79.7% | 202 nM | 10.7 nM | 18.79 | 4.26 ×10⁻⁶ cm/s | 1.5
9 | C=CC(=O)Nc1cc(Nc2nccc(C(=O)c3ccc(OC(C)C)cc3)n2)c(OC)cc1N(C)CCN(C)C [EGFR_3365_31, N-(2-((2-(dimethylamino)ethyl)(methyl)amino)-5-((4-(4-isopropoxybenzoyl)pyrimidin-2-yl)amino)-4-methoxyphenyl) acrylamide] | – | 93.1% | 131 nM | 8.65 nM | 15.12 | 3.7 ×10⁻⁶ cm/s | 1.1
10 | C=CC(=O)Nc1cc(Nc2cc(C(=O)c3ccc(N4CCN(C)CC4)cc3)ccn2)c(OC)cc1N(C)CCN(C)C [EGFR_3365_55, N-(2-((2-(dimethylamino)ethyl)(methyl)amino)-4-methoxy-5-((4-(4-(4-methylpiperazin-1-yl)benzoyl)pyridin-2-yl)amino)phenyl)acrylamide] | 5 µL/min/mg | 84.8% | 76.6 nM | 25.4 nM | 3.02 | – | –
11 | C=CC(=O)Nc1cc(Nc2nccc(C(=O)c3ccc(N4CCN(C)CC4)cc3)n2)c(OC)cc1N(C)CCN(C)C [EGFR_3365_62, N-(2-((2-(dimethylamino)ethyl)(methyl)amino)-4-methoxy-5-((4-(4-(4-methylpiperazin-1-yl)benzoyl)pyrimidin-2-yl)amino)phenyl)acrylamide formate] | 3.7 µL/min/mg | 98.4% | 127 nM | 6.58 nM | 19.37 | – | –
12 | C=CC(=O)Nc1cc(Nc2nccc(C(=O)c3ccc(OCC)cc3OCC)n2)c(OC)cc1N(C)CCN(C)C [EGFR_3365_68, N-(5-((4-(2,4-diethoxybenzoyl)pyrimidin-2-yl)amino)-2-((2-(dimethylamino)ethyl) (methyl)amino)-4-methoxyphenyl)acrylamide] | 14.5 µL/min/mg | 78.4% | 93.9 nM | 9.03 nM | 10.40 | – | –
13 | C=CC(=O)Nc1cc(Nc2nccc(C(=O)c3ccc(OC)cc3OC)n2)c(OC)cc1N(C)CCN(C)C [EGFR_3365_69, N-(5-((4-(2,4-dimethoxybenzoyl)pyrimidin-2-yl)amino)-2-((2-(dimethylamino)ethyl)(methyl)amino)-4-methoxyphenyl)acrylamide] | 14.4 µL/min/mg | 100.0% | 23.6 nM | 2.59 nM | 9.12 | – | –
14 | C=CC(=O)Nc1cc(Nc2cc(C(=O)c3ccc(-c4cnn(C)c4)cc3)ccn2)c(OC)cc1N(C)CCN(C)C [EGFR_3365_85, N-(2-((2-(dimethylamino)ethyl)(methyl)amino)-4-methoxy-5-((4-(4-(1-methyl-1H-pyrazol-4-yl)benzoyl)pyridin-2-yl)amino)phenyl) acrylamide] | 17.8 µL/min/mg | 100.0% | 60 nM | 8.36 nM | 7.17 | – | –
15 | C=CC(=O)Nc1cc(Nc2nccc(C(=O)c3cc4ccccc4n3C)n2)c(OC)cc1N(C)CCN(C)C [EGFR_3365_94, N-(2-((2-(dimethylamino)ethyl) (methyl)amino)-4-methoxy-5-((4-(1-methyl-1H-indole-2-carbonyl)pyrimidin-2-yl)amino)phenyl)acrylamide] | – | 83.3% | 25.4 nM | 1.41 nM | 18.02 | 6.54 ×10⁻⁶ cm/s | 0.86
